These are literature values, as cited in patent US20220323308A1, “DISSOLVABLE VITAMIN C AND RETINOL FILM” (Mary Kay Inc., priority 2019, published 2022).

For the data set the following is noted: topical, when properly formulated.

For the molecule `O=C1O[C@H]([C@@H](O)CO)C(O)=C1O` [ascorbic acid], the “enhancement of endogenous ascorbic acid levels in the skin” value is “up to twenty-fold”.
